Experimental data reported in patent US9737073B2, “Herbicidal weed control from combinations of fluroxypyr and ALS inhibitors” (Dow AgroSciences LLC, priority 2014, dated 2017).
“And” between values parts separate entries of the source, which are not always exact repeats. Equal values may be shown once.

Tests used:
Format in all cases: in vivo
[1] = system: Commelina benghalensis (tropical spiderwort, COMBE); test: Postemergence herbicidal weed control, fluroxypyr-meptyl and diclosulam, greenhouse trials (Table 1)
Description: (§1) Field trials were conducted using standard herbicide small plot research methodology. Plots varied from 3×3.3 meter (m) to 4.5×10 m (width×length) with 4 replicates per treatment. The crops used in the field trials were grown using normal cultural practices for land preparation, fertilization, seeding and maintenance to ensure good growth of the crop and the weeds.
(§2) All treatments in the field trials were applied using either pressurized air or carbon dioxide (CO2) backpack or bicycle sprayers calibrated to apply 100-187 L/ha spray volume. Flat Fan spray nozzles were used in all trials, with water as the diluent applied at 275-300 kilopascals (kPa). Weed sizes at application ranged from 10 to 40 cm tall. Commercially available products of fluroxypyr-meptyl (STARANE™, 180 and 333 g ae/L EC), diclosulam (SPIDER® 84WG), and thifensulfuron-methyl (HARMONY® 75WG) were mixed in water at appropriately formulated product rates to achieve the desired rates based on a unit area of application (hectare) to achieve the desired rates as shown. No adjuvants were tank-mixed with any treatments applied in the field trials. Treatments were rated at 14-26 days after application as compared to the untreated control plants. Visual weed control was scored on a scale of 0 to 100 percent where 0 corresponds to no injury and 100 corresponds to complete kill.
(§3) The treated plots and control plots were rated blind at various intervals after application. Ratings were reported on a Percent (%) Visual Control basis, where 0 corresponds to no visual effect/weed control and 100 corresponds to complete kill of the target weeds.
(§4) Colby's equation was used to determine the herbicidal effects expected from the mixtures (Colby, S. R. Calculation of the synergistic and antagonistic response of herbicide combinations. Weeds 196715, 20-22). A t-test (alpha=0.05) between Colby predictions and observed combinations was used to test for significant differences indicating synergy or antagonism. The results presented in the Tables were significant according to the described criteria.
(§5) The following equation was used to calculate the expected activity of mixtures containing two active ingredients, A and B: Expected=A+B−(A×B/100) • A=observed efficacy of active ingredient A at the same concentration as used in the mixture; • B=observed efficacy of active ingredient B at the same concentration as used in the mixture.

[2] = system: Abutilon theophrasti (velvetleaf, ABUTH); test: Postemergence herbicidal weed control, fluroxypyr-meptyl and cloransulam-methyl, field trials (Table 2)
Description: (§6) Seeds of the desired test plant species were planted in a peat-based potting soil, Metro-Mix 360® in plastic pots with a surface area of 128 square centimeters (cm^2). Metro-Mix 360® consists of formulated Canadian sphagnum peat moss, coarse perlite, bark ash, a starter nutrient charge (with gypsum), a slow-release nitrogen and dolomitic limestone. The plants were grown for 7-19 days in a greenhouse with an approximate 14-hour (h) photoperiod which was maintained at about 29° C. during the day and 26° C. during the night. Nutrients and water were added on a regular basis and supplemental lighting was provided with overhead metal halide 1000-Watt lamps as necessary. The plants were treated with postemergence foliar applications when they reached the third to fourth true leaf stage. All treatments were applied using a randomized complete block trial design, with 4 replications per treatment.
(§7) Treatments consisted of the compounds as listed in Tables 1 to 4, each compound applied alone and in combination. Commercially formulated products of fluroxypyr-meptyl (STARANE™, 333 grams acid equivalent per liter (g ae/L) EC), diclosulam (SPIDER® 84WG), cloransulam-methyl (FIRSTRATE™ 84WG), chlorimuron-ethyl (CLASSIC® 25WG) and thifensulfuron-methyl (HARMONY® 50SG). Formulated amounts of fluroxypyr-meptyl, diclosulam, cloransulam-methyl, chlorimuron-ethyl and thifensulfuron-methyl were placed in 60 milliliter (mL) glass vials and dissolved in a volume of 30 or 60 mL of a water solution containing Agri-dex crop oil concentrate in a 1% volume per volume (v/v) ratio. Compound requirements are based upon either a 30- or a 60-mL application volume at a rate of 200 liters per hectare (L/ha). Spray solutions of the mixtures were prepared by adding the stock solutions to the appropriate amount of dilution solution to form either a 30- or a 60-mL spray solution with active ingredients in single and two-way combinations. Formulated compounds were applied to the plant material with an overhead Generation III Research Sprayer manufactured by DeVries Manufacturing in Hollandale, Minn., USA. The track sprayer was equipped with an 8003E nozzle calibrated to deliver 200 L/ha at a spray height of 18 inches (43 centimeters (cm)) above average plant canopy.
(§8) The treated plants and untreated control plants were placed in a greenhouse as described above and watered by sub-irrigation to prevent wash-off of the test compounds.
(§9) Treatments were rated at 7 to 21 days after application (DAA) as compared to the untreated control plants. Visual weed control was scored on a scale of 0 to 100 percent where 0 corresponds to no injury and 100 corresponds to complete kill.
as §1
as §2, with “Visual weed control was scored on a scale of 0 to 100 percent where 0 corresponds to no injury and 100 corresponds to complete kill.” left out

[3] = system: Amaranthus rudis Sauer (common waterhemp, AMATA); test: as above
Description: as §6, §7, §8, §9, §1
as §2, with “Visual weed control was scored on a scale of 0 to 100 percent where 0 corresponds to no injury and 100 corresponds to complete kill.” left out

[4] = system: Amaranthus retroflexus L. (redroot pigweed, AMARE); test: Postemergence herbicidal weed control, fluroxypyr-meptyl and thifensulfuron-methyl, field trials (Table 4); settings: 21DAA1, 17.5 g ae/ha
Description: as §1, §2, §3, §4, §5

In the case of `CCCCCCC(C)OC(=O)COc1nc(F)c(Cl)c(N)c1Cl` (centres unmarked) [Fluroxypyr-meptyl, fluroxypyr-methylheptyl ester], the “Fluroxypyr-meptyl Mean % weed control” value ([1]; 14DAA1, 200 g ae/ha) is reported as 27.5%, the “Fluroxypyr-meptyl Mean % weed control” value ([1]; 26DAA1, 200 g ae/ha) is reported as 25.0% and the “Fluroxypyr-meptyl Mean % weed control” value ([2]; 14DAA1, 25 g ae/ha) is reported as 68.3% and 70.0%. The “Fluroxypyr-meptyl Mean % weed control” value ([2]; 21DAA1, 25 g ae/ha) was 71.7% and 72.5%, the “Fluroxypyr-meptyl Mean % weed control” value ([3]; 8DAA1, 25 g ae/ha) was 42.5% and the “Fluroxypyr-meptyl Mean % weed control” value ([3]; 14DAA1, 25 g ae/ha) was 21.3%. The “Fluroxypyr-meptyl Mean % weed control” value ([3]; 21DAA1, 25 g ae/ha) was 22.5% and the “Fluroxypyr-meptyl Mean % weed control” value [4] was 3.8%.
